Data from patent US8293208B2, “Fluorinated fructose derivatives for PET imaging” (The Governors of the University of Alberta, priority 2009, dated 2012).
One block for each molecule: values may come before it.

Tests used:
MDA-MB-231 cells [1] = assay: Inhibition of [14C]-D-glucose transport (hexose flux) in MDA-MB-231 cells; assay type: cell-based, human; details: for Ki: [14C]-D-glucose
Protocol: (§1) Both MCF-7 and MDA-MB-231 cells (Gifts from Dr. David Murray, Cross Cancer Institute, Edmonton, Canada) were grown in a 37° C., 5% CO2 incubator, in Gibco® DMEM-F12 supplemented with 15 mM HEPES, L-glutamine, 10% fetal bovine serum and 1% penicillin/streptomycin with media renewal every 2 to 3 days. For cell flux studies, cells were grown to confluence in 12-well plates with media renewal every two days. Two hours before performing the flux experiment, the media was removed, and the cells washed twice with phosphate buffered saline solution (PBS). Glucose-free Krebs-Ringer solution was added to the wells (120 mM NaCl, 25 mM NaHCO3, 4 mM KCl, 1.2 mM KH2PO4, 2.5 mM MgSO4, 70 uM CaCl2, pH 7.4) to deprive the cells of nutrients and to set up a zero-trans experiment. After two hours, cells were removed from the incubator, and the respective experiments were performed. Radioactive “Hot” flux solutions were made up using the Krebs-Ringer solution previously mentioned and radiolabelled [^14C]-D-glucose (Amersham), [^14C]-D-fructose (Moravek Biochemicals), or [^14C]6FDF (proprietary) at a specific activity of approximately 1 μCi/ml. For determining background levels of radioactivity, a sodium reduced Krebs solution was made (70 mM NaCl, 25 mM NaHCO3, 4 mM KCl, 1.2 mM KH2PO4, 2.5 mM MgSO4, 70 μM CaCl2, pH 7.4) with the addition of either 100 mM D-glucose or 100 mM D-fructose to outcompete the binding sites of the specific GLUT transporters under examination. After applying the test flux solution, incubations lasted for 25 minutes, where the cells were then rinsed twice with ice-cold Krebs-Ringer to stop the transport, and then lysed using 500 μl 5% trichloracetic acid and left to sit on a shaker bed overnight. […] The vials were then placed in a Beckman™ LS 6500 multi-purpose liquid scintillation counter to be quantified. […]
(§2) All uptake values were corrected for their respective adhering extracellular substrate, and Ki values were determined using non-linear regression in GraphPad Prism™ 5 (GraphPad Software, Inc., La Jolla, Calif.). […]

MCF-7 cells [2] = assay: Inhibition of [14C]-D-glucose transport (hexose flux) in MCF-7 cells; assay type: cell-based, human; details: for Ki: [14C]-D-glucose
Protocol: as §1, §2

MDA-MB-231 cells [3] = assay: Inhibition of [14C]-D-fructose transport (hexose flux) in MDA-MB-231 cells; assay type: cell-based, human
Protocol: (§3) Both MCF-7 and MDA-MB-231 cells (Gifts from Dr. David Murray, Cross Cancer Institute, Edmonton, Canada) were grown in a 37° C., 5% CO2 incubator, in Gibco® DMEM-F12 supplemented with 15 mM HEPES, L-glutamine, 10% fetal bovine serum and 1% penicillin/streptomycin with media renewal every 2 to 3 days. For cell flux studies, cells were grown to confluence in 12-well plates with media renewal every two days. Two hours before performing the flux experiment, the media was removed, and the cells washed twice with phosphate buffered saline solution (PBS). Glucose-free Krebs-Ringer solution was added to the wells (120 mM NaCl, 25 mM NaHCO3, 4 mM KCl, 1.2 mM KH2PO4, 2.5 mM MgSO4, 70 uM CaCl2, pH 7.4) to deprive the cells of nutrients and to set up a zero-trans experiment. After two hours, cells were removed from the incubator, and the respective experiments were performed. Radioactive “Hot” flux solutions were made up using the Krebs-Ringer solution previously mentioned and radiolabelled [^14C]-D-glucose (Amersham), [^14C]-D-fructose (Moravek Biochemicals), or [^14C]6FDF (proprietary) at a specific activity of approximately 1 μCi/ml. For determining background levels of radioactivity, a sodium reduced Krebs solution was made (70 mM NaCl, 25 mM NaHCO3, 4 mM KCl, 1.2 mM KH2PO4, 2.5 mM MgSO4, 70 μM CaCl2, pH 7.4) with the addition of either 100 mM D-glucose or 100 mM D-fructose to outcompete the binding sites of the specific GLUT transporters under examination. […] Three 150 μl samples from each well were placed into scintillation counter vials, and 4 ml of ScintiSafe™ liquid scintillation fluid (Fisher) was added. The vials were then placed in a Beckman™ LS 6500 multi-purpose liquid scintillation counter to be quantified. All counts were then normalized to standards and corrected for background accumulation of isotope.
(§4) All uptake values were corrected for their respective adhering extracellular substrate, and Ki values were determined using non-linear regression in GraphPad Prism™ 5 (GraphPad Software, Inc., La Jolla, Calif.). ANOVA analysis was also performed in GraphPad Prism™ 5.

MCF-7 cells [4] = assay: Inhibition of [14C]-D-fructose transport (hexose flux) in MCF-7 cells; assay type: cell-based, human
Protocol: as §3, §4

Storage stability = assay type: physicochemical; details: prolonged storage
MCF-7 cells [5] = assay: [14C]-6-deoxy-6-fluoro-D-fructose uptake in MCF-7 cells; assay type: cell-based, human; details: for uptake time course: 90 minute incubation, MCF-7, corrected for non-mediated hexose uptake
Protocol: as §3, §4

MDA-MB-231 cells [6] = assay: [14C]-6-deoxy-6-fluoro-D-fructose uptake in MDA-MB-231 cells; assay type: cell-based, human; details: 90 minute incubation, MDA-MB-231, corrected for non-mediated hexose uptake
Protocol: Both MCF-7 and MDA-MB-231 cells (Gifts from Dr. David Murray, Cross Cancer Institute, Edmonton, Canada) were grown in a 37° C., 5% CO2 incubator, in Gibco® DMEM-F12 supplemented with 15 mM HEPES, L-glutamine, 10% fetal bovine serum and 1% penicillin/streptomycin with media renewal every 2 to 3 days. For cell flux studies, cells were grown to confluence in 12-well plates with media renewal every two days. Two hours before performing the flux experiment, the media was removed, and the cells washed twice with phosphate buffered saline solution (PBS). […] For determining background levels of radioactivity, a sodium reduced Krebs solution was made (70 mM NaCl, 25 mM NaHCO3, 4 mM KCl, 1.2 mM KH2PO4, 2.5 mM MgSO4, 70 μM CaCl2, pH 7.4) with the addition of either 100 mM D-glucose or 100 mM D-fructose to outcompete the binding sites of the specific GLUT transporters under examination. […] The vials were then placed in a Beckman™ LS 6500 multi-purpose liquid scintillation counter to be quantified. […]
as §2

[7] = increasing concentrations, MDA-MB-231
[8] = increasing concentrations, MCF-7
[9] = listed as [^14C]-labelled 6-deoxy-6-fluoro-D-fructose

stability during storage (Storage stability): not stable during prolonged storage
Compound: OCC1(O)O[C@H](CF)[C@@H](O)[C@@H]1O (stereo partly drawn) [6-deoxy-6-fluoro-D-fructose]
Ki (MDA-MB-231 cells [1]; 25 minute incubation, MDA-MB-231, n=3): 6210 ± 2860 µM | Ki (MDA-MB-231 cells [1]; MDA-MB-231 (FIG. 7B)): 6210 ± 2860 µM | inhibition of [14C]-D-glucose transport, in words (MDA-MB-231 cells [1]; [7]): dose dependent inhibition | Ki (MCF-7 cells [2]; 25 minute incubation, MCF-7, n=3): ~916 µM | Ki (MCF-7 cells [2]; MCF-7 (FIG. 7A)): ~916 µM | inhibition of [14C]-D-glucose transport, in words (MCF-7 cells [2]; [8]): dose dependent inhibition | Ki (MDA-MB-231 cells [3]; [14C]-D-fructose, 25 minute incubation, MDA-MB-231, n=3): 330 ± 153 µM | inhibition of [14C]-D-fructose transport, in words (MDA-MB-231 cells [3]; [7]): dose dependent inhibition | Ki (MCF-7 cells [4]; [14C]-D-fructose, 25 minute incubation, MCF-7, n=3): 154 ± 54 µM | inhibition of [14C]-D-fructose transport, in words (MCF-7 cells [4]; [8]): dose dependent inhibition

Compound: C=C1[C@@H](C)[C@H]2[C@H](Cc3ccccc3)NC(=O)[C@]23OC(=O)/C=C/[C@H](O)CCC[C@@H](C)C/C=C/[C@H]3[C@@H]1O [CB, cytochalasin B, reference compound]
share of total fructose flux inhibited (GLUT2-mediated) (MDA-MB-231 cells [3]; 100 μM CB, [14C]-D-fructose, 90 minute flux, MDA-MB-231): approximately 30% | effect on fructose transport (MCF-7 cells [4]; 100 μM CB, [14C]-D-fructose, 60 minutes, MCF-7): no significant transport difference | share of total fructose flux inhibited (GLUT2-mediated) (MCF-7 cells [4]; 100 μM CB, [14C]-D-fructose, 90 minute flux, MCF-7): about 12% | effect on 6-deoxy-6-fluoro-D-fructose transport (MCF-7 cells [5]; 100 μM CB, [14C]-6-deoxy-6-fluoro-D-fructose, 60 minutes, MCF-7): no significant transport difference

Compound: O=C(CO)[C@@H](O)[C@H](O)[C@H](O)CF [[^14C]-6-deoxy-6-fluoro-D-fructose]
uptake time course (MDA-MB-231 cells [6]): Near linear uptake | uptake time course (MDA-MB-231 cells [6]; [9]): Near linear uptake over time | uptake time course (MCF-7 cells [5]): Near linear uptake | uptake time course (MCF-7 cells [5]; [9]): Near linear uptake over time | increase in uptake compared to [14C]-D-fructose (MCF-7 cells [5]; MCF-7, one hour incubation, 2-way ANOVA p=0.0028): almost two-fold increase
